Experiments:
[1] = system: HCV Jc1-infected Huh7.5.1^dif cells; assay: 186-gene HCC risk signature (nCounter, GSEA, nearest template prediction) in persistently HCV Jc1-infected Huh7.5.1^dif cells; assay type: cell-based, human; conditions: for Reversal of HCC high-risk genes as shown by GSEA (FIG. 2A): DAA 1 nM DCV+1 μM SOF, interferon alpha-2a 10 IU/ml, erlotinib 0.1 μM, pioglitazone 1 μM, metformin 3 μM, mAb 1, 10 and 100 μg/ml
Experimental: Huh7.5.1 cells have already been described (Zhong et al., Proc Natl Acad Sci USA, 2005, 102(26): 9294-9299). For proliferation arrest and differentiation (Huh7.5.1^dif cells), 2.5.10^4 to 3.10^4 Huh7.5.1 cells were cultured in Dulbecco's Modified Eagle Medium (DMEM) containing 1% dimethylsulfoxide (DMSO).
Cell culture-derived HCVcc Jc1 (genotype 2a/2a) (Pietschmann et al., Proc Natl Acad Sci USA, 2006, 103(19): 7408-7413) were generated in Huh7.5.1 cells as previously described (Wakita et al., Nat Med., 2005, 11(7): 791-796). HCVcc infectivity was determined by calculating the 50% tissue culture infectious doses (TCID50) in infection experiments as previously described (Lindenbach et al., Science, 2005, 309(5734): 623-626). HCV infection was assessed by qRT-PCR of intracellular HCV RNA (Xiao et al., Gut, 2015, 64(3): 483-494) as well as by immunostaining using an HCV E2-specific AP33 antibody as previously described (Krieger et al., Hepatology. 2010, 51(4): 1144-1157).
Liver cells were lysed in TRI-reagent (Molecular Research Center), and RNA was purified using Direct-zol RNA MiniPrep (Zymo Research) according to the manufacturer's instructions. RNA quantity and quality were assessed using NanoDrop (ThermoScientific) and Bioanalyzer 2100 ([…]). Gene expression profiling was performed using 250-500 ng total RNA by using nCounter Digital Analyzer system (NanoString).
Cells incubated with 1% DMSO served as negative control. Three (3) days after treatment, the cells were lysed, total RNA was purified as described above, and analyzed for gene expression and intracellular viral load as described above.
Prediction of clinical outcome based on the 186-gene signature was performed as previously reported by using the nearest template prediction algorithm, which was implemented in GenePattern (King et al., Gut, 2014, 20. pii: gutjn1-2014-307862. doi: 10.1136/gutjn1-2014-307862; Hoshida et al., PLoS ONE, 2010, 5(11), e15543). A prediction of HCC high-risk or low-risk gene signature was determined using p<0.05 and FDR<0.25. Induction/suppression of each gene set over time according to HCV Jc1 infection and uninfected control was assessed through GSEA and single sample GSEA (ssGSEA) modules implemented in GenePattern as previously described (Subramanian et al., Proc Natl Acad Sci USA, 2005, 102(43): 15545-15550; Barbie et al., Nature, 2009, 462(7269): 108-112). […] Using differentially expressed genes, network analysis was performed using canonical pathways from Ingenuity Knowledge Base repository (Ingenuity Systems Inc.).

[2] = system: rodent models of cirrhosis-driven HCC; conditions: Fuchs et al., Hepatology, 2014; cited from earlier work
[3] = 186-gene signature, treatment from day 7 post-infection, nCounter assay

SMILES | Reversal of HCC high-risk genes as shown by GSEA (FIG. 2A) [1] | 186-gene HCC risk signature [2] | Liver fibrosis and HCC nodules [2] | NES, HCC high-risk genes (GSEA) [1, 3] | NES, HCC low-risk genes (GSEA) [1, 3]
CN(C)C(=N)N=C(N)N [metformin] | had no effect |  |  |  | 
C#Cc1cccc(Nc2ncnc3cc(OCCOC)c(OCCOC)cc23)c1 [erlotinib] | partially reverses | reversed | reduced liver fibrosis and HCC nodules | −1.28 | 1.26

From US10927170B2, “Anti-claudin 1 monoclonal antibodies for the prevention and treatment of hepatocellular carcinoma” (INSTITUT HOSPITALIER UNIVERSITAIRE DE STRASBOURG, priority 2015, dated 2021)
